In test [1] the target is T1, AHR (Homo sapiens, UniProt P35869).
T1 sequence (P35869 11-848): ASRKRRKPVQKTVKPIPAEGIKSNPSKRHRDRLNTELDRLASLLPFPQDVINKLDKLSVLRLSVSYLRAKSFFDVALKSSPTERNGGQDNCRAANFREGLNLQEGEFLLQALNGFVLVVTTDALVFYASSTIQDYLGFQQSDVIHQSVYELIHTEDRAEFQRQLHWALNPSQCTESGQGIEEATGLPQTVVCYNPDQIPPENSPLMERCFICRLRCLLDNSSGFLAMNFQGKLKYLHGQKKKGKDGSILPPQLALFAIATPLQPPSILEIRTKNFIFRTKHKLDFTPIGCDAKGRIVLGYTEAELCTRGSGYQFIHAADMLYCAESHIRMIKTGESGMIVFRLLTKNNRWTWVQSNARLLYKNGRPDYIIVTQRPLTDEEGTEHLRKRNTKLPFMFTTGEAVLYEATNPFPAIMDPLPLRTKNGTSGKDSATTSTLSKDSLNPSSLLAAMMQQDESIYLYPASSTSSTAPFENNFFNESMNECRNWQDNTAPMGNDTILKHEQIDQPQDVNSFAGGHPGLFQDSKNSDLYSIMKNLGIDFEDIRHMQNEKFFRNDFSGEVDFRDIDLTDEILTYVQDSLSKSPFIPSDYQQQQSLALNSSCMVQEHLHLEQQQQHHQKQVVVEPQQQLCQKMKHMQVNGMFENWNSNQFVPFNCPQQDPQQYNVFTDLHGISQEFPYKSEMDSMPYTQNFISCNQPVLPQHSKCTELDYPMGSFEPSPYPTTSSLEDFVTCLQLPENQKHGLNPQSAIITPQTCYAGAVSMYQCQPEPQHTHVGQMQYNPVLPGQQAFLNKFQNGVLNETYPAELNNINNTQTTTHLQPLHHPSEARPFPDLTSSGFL
Kind of test: In vitro assay 2: agonism in human cell line (transactivation assay). The settings on record: Assay 2: AHR-luc Hum Agonism IC50 [M], no kynurenic acid, 20 hours, firefly luciferase.

In test [2] the test system is AHR-regulated gene CYP1A1. In words: In vitro assay 3: AHR-regulated CYP1A1 expression in human cell line (U937, qPCR). To be noted: Homo sapiens, U-937, 6 h, read-out: Assay 3: Hum CYP1A1 Antagonism IC50 [M], U937 cells, 200 μM KA, 6 hours, qPCR. For orientation: Real-time PCR tracks product formation cycle by cycle.
Test [3] has as its target T1, AHR. In words: In vitro assay 1: antagonism in human cell line (transactivation assay, kynurenic acid prestimulated). The settings on record: Assay 1: AHR-luc Hum Antagonism IC50 [M], 150 μM kynurenic acid, 20 hours, firefly luciferase.

Bounds are passed on as bounds.

Broadly, the IC50 is the concentration needed to halve the response being measured. Turning to `C[C@@H](O)[C@@H](C)NC(=O)c1cc(-c2ccc(Cl)cc2)nn(-c2cccc(F)c2)c1=O` [Example 231, 6-(4-Chlorophenyl)-2-(3-fluorophenyl)-N-[(2R,3R)-3-hydroxybutan-2-yl]-3-oxo-2,3-dihydropyridazine-4-carboxamide], the IC50 on AHR [1] is above 2e-05 M; in test [2], 5.77e-08 M; at AHR [3], 4.72e-08 M.
The corresponding values for `C[C@@H](CO)NC(=O)c1cc(-c2ccc(C(F)(F)F)cc2)nn(-c2cccc(F)c2)c1=O` [Example 237, 2-(3-Fluorophenyl)-N-[(2S)-1-hydroxypropan-2-yl]-3-oxo-6-[4-(trifluoromethyl)phenyl]-2,3-dihydropyridazine-4-carboxamide] are above 2e-05 M, 2.46e-08 M and 1.23e-08 M.
The corresponding values for `C[C@H](CO)CNC(=O)c1cc(-c2ccc(C(F)(F)F)cc2)nn(-c2cccc(F)c2)c1=O` [Example 246, (−)-2-(3-Fluorophenyl)-N-[(2S)-3-hydroxy-2-methylpropyl]-3-oxo-6-[4-(trifluoromethyl)phenyl]-2,3-dihydropyridazine-4-carboxamide] are above 2e-05 M, 4.05e-08 M and 2.78e-08 M.
For `C[C@H](O)CCNC(=O)c1cc(-c2ccc(C(F)(F)F)cc2)nn(-c2cccc(F)c2)c1=O` [Example 248, 2-(3-Fluorophenyl)-N-[(3S)-3-hydroxybutyl]-3-oxo-6-[4-(trifluoromethyl)phenyl]-2,3-dihydropyridazine-4-carboxamide], the IC50 on AHR [1] was above 2e-05 M; in test [2], 1.36e-07 M; at AHR [3], 9.73e-08 M.
For `O=C(NCCCO)c1cc(-c2ccc(C(F)(F)F)cc2)nn(-c2cccc(F)c2)c1=O` [Example 249, 2-(3-Fluorophenyl)-N-(3-hydroxypropyl)-3-oxo-6-[4-(trifluoromethyl)phenyl]-2,3-dihydropyridazine-4-carboxamide], the half-inhibitory concentration (IC50) against AHR [1] is above 2e-05 M; in test [2], 1.07e-07 M; against AHR [3], 8.84e-08 M.
The corresponding values for `O=C(NC(CO)CO)c1cc(-c2ccc(C(F)(F)F)cc2)nn(-c2cccc(F)c2)c1=O` [Example 250, N-(1,3-Dihydroxypropan-2-yl)-2-(3-fluorophenyl)-3-oxo-6-[4-(trifluoromethyl)phenyl]-2,3-dihydropyridazine-4-carboxamide] are above 2e-05 M, 7.24e-08 M and 4.69e-08 M.
With `O=C(N[C@H](CO)Cc1ccccc1)c1cc(-c2ccc(C(F)(F)F)cc2)nn(-c2cccc(F)c2)c1=O` [Example 251, 2-(3-Fluorophenyl)-N-[(2S)-1-hydroxy-3-phenylpropan-2-yl]-3-oxo-6-[4-(trifluoromethyl)phenyl]-2,3-dihydropyridazine-4-carboxamide], the IC50 is above 2e-05 M against AHR [1], 3.67e-08 M in test [2] and 5.09e-06 M at AHR [3].
On to `CC(C)(O)CNC(=O)c1cc(-c2ccc(C(F)(F)F)cc2)nn(-c2cccc(F)c2)c1=O` [Example 256, 2-(3-Fluorophenyl)-N-(2-hydroxy-2-methylpropyl)-3-oxo-6-[4-(trifluoromethyl)phenyl]-2,3-dihydropyridazine-4-carboxamide], for which the results for the half-maximal inhibitory concentration (IC50) (against AHR [1]; in test [2]; at AHR [3]) were above 2e-05 M, 2.83e-08 M and 1.44e-08 M, respectively.
For `COC[C@H](CO)NC(=O)c1cc(-c2ccc(C(F)(F)F)cc2)nn(-c2cccc(F)c2)c1=O` [Example 257, (+)-2-(3-Fluorophenyl)-N-[(2S)-1-hydroxy-3-methoxypropan-2-yl]-3-oxo-6-[4-(trifluoromethyl)phenyl]-2,3-dihydropyridazine-4-carboxamide], the IC50 is above 2e-05 M against AHR [1], 1.34e-07 M in test [2] and 6.37e-08 M against AHR [3].
Take `COC[C@@H](CO)NC(=O)c1cc(-c2ccc(C(F)(F)F)cc2)nn(-c2cccc(F)c2)c1=O` [Example 258, (−)-2-(3-Fluorophenyl)-N-[(2R)-1-hydroxy-3-methoxypropan-2-yl]-3-oxo-6-[4-(trifluoromethyl)phenyl]-2,3-dihydropyridazine-4-carboxamide]: the results for the IC50 (on AHR [1]; in test [2]; against AHR [3]) were above 2e-05 M, 3.71e-08 M and 3.01e-08 M, respectively.
In the case of `O=C(NC[C@H](O)CO)c1cc(-c2ccc(C(F)(F)F)cc2)nn(-c2cccc(F)c2)c1=O` [Example 264, (−)-N-[(2S)-2,3-Dihydroxypropyl]-2-(3-fluorophenyl)-3-oxo-6-[4-(trifluoromethyl)phenyl]-2,3-dihydropyridazine-4-carboxamide], the IC50 is above 2e-05 M on AHR [1], 8.01e-08 M in test [2] and 7.05e-08 M against AHR [3].
The corresponding values for `O=C(NC[C@@H](O)CO)c1cc(-c2ccc(C(F)(F)F)cc2)nn(-c2cccc(F)c2)c1=O` [Example 265, (+)-N-[(2R)-2,3-Dihydroxypropyl]-2-(3-fluorophenyl)-3-oxo-6-[4-(trifluoromethyl)phenyl]-2,3-dihydropyridazine-4-carboxamide] are above 2e-05 M, 2.15e-07 M and 6.04e-08 M.
The corresponding values for `CC(C)(C)[C@@H](CO)NC(=O)c1cc(-c2ccc(Cl)cc2)nn(-c2cccc(F)c2)c1=O` [Example 272, 6-(4-Chlorophenyl)-2-(3-fluorophenyl)-N-[(2S)-1-hydroxy-3,3-dimethylbutan-2-yl]-3-oxo-2,3-dihydropyridazine-4-carboxamide] are above 2e-05 M, 2.37e-08 M and 3.6e-08 M.
`CC(C)(O)C(NC(=O)c1cc(-c2ccc(Cl)cc2)nn(-c2cccc(F)c2)c1=O)C(F)(F)F` (stereo not drawn) [Example 277, 6-(4-Chlorophenyl)-2-(3-fluorophenyl)-3-oxo-N-(1,1,1-trifluoro-3-hydroxy-3-methylbutan-2-yl)-2,3-dihydropyridazine-4-carboxamide]: the IC50 was above 2e-05 M against AHR [1], 2.08e-08 M in test [2] and 4.94e-09 M against AHR [3].
The corresponding values for `CC(NC(=O)c1cc(-c2ccc(Cl)cc2)nn(-c2cccc(F)c2)c1=O)C(C)(C)O` (stereo not drawn) [Example 281, 6-(4-Chlorophenyl)-2-(3-fluorophenyl)-N-(3-hydroxy-3-methylbutan-2-yl)-3-oxo-2,3-dihydropyridazine-4-carboxamide] are above 2e-05 M, 7.59e-08 M and 2.2e-08 M.
Regarding `O=C(N[C@H](CO)C(F)(F)F)c1cc(-c2ccc(C(F)F)cc2)nn(-c2cccc(F)c2)c1=O` [Example 296, 6-[4-(Difluoromethyl)phenyl]-2-(3-fluorophenyl)-3-oxo-N-[(2R)-1,1,1-trifluoro-3-hydroxypropan-2-yl]-2,3-dihydropyridazine-4-carboxamide], the IC50 at AHR [1] is above 2e-05 M; in test [2] it was 6.22e-09 M; on AHR [3], 3.66e-09 M.
The corresponding values for `CC[C@@H](CO)NC(=O)c1cc(-c2ccc(Cl)c(Cl)c2)nn(-c2cccc(F)c2)c1=O` [Example 306, 6-(3,4-Dichlorophenyl)-2-(3-fluorophenyl)-N-[(2S)-1-hydroxybutan-2-yl]-3-oxo-2,3-dihydropyridazine-4-carboxamide] are above 2e-05 M, 1.75e-07 M and 1.06e-07 M.

The record behind these values is patent US11040035B2, “3-oxo-2,6-diphenyl-2,3-dihydropyridazine-4-carboxamides” (BAYER PHARMA AKTIENGESELLSCHAFT, priority 2016, dated 2021).
